In ChEMBL document CHEMBL5325396, “Discovery of Novel Acridane-Based Tubulin Polymerization Inhibitors with Anticancer and Potential Immunomodulatory Effects” (J Med Chem, 2023):

What was measured:
B16-F10 [1] = test: Inhibition of cell migration in mouse B16-F10 cells assessed as wound area ratio at 50 nM incubated for 24 hrs by wound healing assay relative to control; assay type: functional
B16-F10 [2] = test: Antitumor activity against mouse B16-F10 cells allografted in C57 mouse assessed as tumor growth inhibition at 10 mg/kg, ip administered consecutively for 14 days; assay type: functional; settings: B16-F10, 336 h, time 14 day, read-out: TGI
B16-F10 [3] = test: Antiproliferative activity against mouse B16-F10 cells incubated for 48 hrs by MTT assay; assay type: functional, cell-based; settings: B16-F10, 48 h
B16-F10 [4] = test: Induction of cell cycle arrest in mouse B16-F10 cells assessed as accumulation at S phase at 50 nM incubated for 24 hrs by PI staining based flow cytometry (reference value: 21.79 %); assay type: functional
B16-F10 [5] = test: Induction of apoptosis in mouse B16-F10 cells assessed as necrotic cells at 25 nM incubated for 48 hrs by annexinV-FITC/PI staining based flow cytometry (reference value: 0.064 %); assay type: functional
B16-F10 [6] = test: Induction of apoptosis in mouse B16-F10 cells assessed as viable cells at 25 nM incubated for 48 hrs by annexinV-FITC/PI staining based flow cytometry (reference value: 93.6 %); assay type: functional; settings: read-out: Activity
B16-F10 [7] = test: Induction of apoptosis in mouse B16-F10 cells assessed as early apoptotic cells at 25 nM incubated for 48 hrs by annexinV-FITC/PI staining based flow cytometry (reference value: 4.25 %); assay type: functional
B16-F10 [8] = test: Immunomodulatory activity in mouse B16-F10 cells allografted in C57 mouse assessed as decrease in PD-L1 level at 10 mg/kg, ip administered consecutively for 14 days relative to control; assay type: functional; design: scale not given: the % may be the effect or the level left; settings: time 14 day
B16-F10 [9] = test: Induction of apoptosis in mouse B16-F10 cells assessed as necrotic cells at 50 nM incubated for 48 hrs by annexinV-FITC/PI staining based flow cytometry (reference value: 0.064 %); assay type: functional
B16-F10 [10] = test: Inhibition of cell migration in mouse B16-F10 cells assessed as wound area ratio at 25 nM incubated for 24 hrs by wound healing assay relative to control; assay type: functional
B16-F10 [11] = test: Immunomodulatory activity in mouse B16-F10 cells allografted in C57 mouse assessed as increase in CD3-positive CD4-positive cells at 10 mg/kg, ip administered consecutively for 14 days in presence of NP-19 (reference value: 8.35 %); assay type: functional; settings: time 14 day
B16-F10 [12] = test: Induction of cell cycle arrest in mouse B16-F10 cells assessed as accumulation at G2 phase at 25 nM incubated for 24 hrs by PI staining based flow cytometry (reference value: 23.04 %); assay type: functional

COc1ccc2c(c1F)Cc1ccccc1N2C(=O)c1cc(OC)c(OC)c(OC)c1
Ratio (B16-F10 [1]): 7.2% | inhibition in vivo at 10 mg/kg (B16-F10 [2]): 65.1% | IC50 (B16-F10 [3]): 20 nM | Activity (B16-F10 [4]): 24.31% | Activity (B16-F10 [5]): 0.268% | viability at 0.025 µM (B16-F10 [6]): 70.4% | Activity (B16-F10 [7]): 22.7% | Activity (B16-F10 [8]): ~10% | Activity (B16-F10 [9]): 0.61% | Ratio (B16-F10 [10]): 26.05% | Activity (B16-F10 [11]): 26.3% | Activity (B16-F10 [12]): 43.79%
